Assay results published in patent publication US8921373B2, “Compounds having TRPV1 antagonistic activity and uses thereof” (Shionogi & Co., Ltd., priority 2010, dated 2014).

Assays:
[1] = molecular target: T1, human recombinant TRPV1 (Homo sapiens (Human), UniProt Q8NER1); experiment: TRPV1 pH-Based Assay (Protocol 2, Ca2+ response in TRPV1/CHO cells, Fura-2); format: cell-based; settings: TRPV1/CHO cells, pH 5.0-5.1; read-out: IC50 value by the pH-Based Assay
Protocol: (§1) For Protocol 2, a Chinese Hamster Ovary cell line (CHO) that has been engineered to constitutively express human recombinant TRPV1 was used (TRPV1/CHO cells). The TRPV1/CHO cell line was generated as described below.
TRPV1/CHO cells were seeded in the 96-well clear-bottom black-wall plate (Nunc) at densities of 1-2×10^4 cells/well and grown in 100 μL of culture medium (alpha-MEM supplemented with 10% FBS, 20 mM HEPES, 1 mg/mL geneticin and 1% antibiotic-antimycotic mixed stock solution) for 1-2 days before the experiment.
(2) The 96-well plate was incubated at 37° C. for 45 min.
(3) The loading buffer was removed from each well. […] The wells were then refilled with 80 μL of measuring buffer.
(4) After an incubation at 4° C. for 15 min, the 96-well plate was transferred to FDSS-3000 (Hamamatsu Photonics, Japan).
(5) The Fura-2 fluorescent intensity was monitored at a wavelength of 340 nm and at 380 nm, respectively, at a rate of 0.5 Hz for a total of 240 seconds. After 16 time points (32 sec) of baseline detection, 20 μL of agonist solution was added to each well. The final volume was 100 μL/well.
(6) Fluorescence intensity ratio refers to the fluorescence intensity at 340 nm over the fluorescence intensity at 380 nm at a particular time point. The baseline was set as the average of the fluorescent intensity ratios for the first 16 time points before the addition of agonist solution. The maximum response was the highest fluorescent intensity ratio during the 60 time points following addition of agonist solution.
(7) Maximal signal ratios from each well were calculated as output data using the FDSS-3000 analysis program. Data were analyzed using Excel (Microsoft) and XLfit (idbs) software.
Two different agonist solutions with different H2SO4 concentrations were used for the pH assay (FIG. 3A). For one half of a 96-well plate one agonist solution was used, for the other half the other agonist solution. The agonist solutions were obtained by diluting sulfuric acid (H2SO4, 1M) with measuring buffer. The concentrations for the two agonist solutions were determined as described above in Section 2 of Protocol 2.
The sulfuric acid concentrations between the two agonist solutions differed by 0.5 mM. […] After 1:4 dilution of the agonist solutions, the final sulfuric acid concentration was 3.2 mM and 3.3 mM, respectively. The resulting pH value for the pH assay was 5.0 to 5.1.
Test compounds were dissolved in DMSO to yield 1 mM stock solutions. […] The thereby-obtained solutions were further diluted in measuring buffer (1:100) as 10× stock serial dilutions with a DMSO concentration of 1%. 10 μL of a 10× stock was added into each well at step 3.3.(4) of Protocol 2.
Steps (1) and (2) of this Assay were the same as steps 2.2.(1) and 2.2.(2) of Protocol 2, respectively.
(3) The cells were washed twice with 150 μL of measuring buffer (mentioned in 2.2.(3) of Protocol 2, no probenecid). The wells were subsequently refilled with 70 μL of measuring buffer.
(4) Either 10 μl of measuring buffer or 10 μL of 10× stock serial dilution of test compound (described in 3.2. above) were applied to each well. Usually, only one test compound was tested per 96-well plate. The number of replicates per 96-well plate for a particular antagonist at a particular concentration was 7×2 since two different sulfuric acid concentrations were used per 96-well plate (N=7×2) (FIG. 3).
Step (5) was the same as 2.2.(4) above.
(6) Fura-2 fluorescent intensity was monitored as described in 2.2.(5) above. After 16 time points of baseline detection, 20 μL of agonist solution (measuring buffer titrated with H2SO4 to yield pH 5.0-5.1 when mixed 1:4 with the measuring buffer containing test compound) was added to each well (final volume 100 μL/well).
Steps (7) and (8) were as described in 2.2.(6) and 2.2.(7) above, respectively.
(1) The pH values of the buffer in the wells of A1→H1 and A7→H7 (longitudinally; FIG. 3) were measured one by one using a portable pH meter.

[2] = Measurement of body temperature increase (rectal body temperature); format: in vivo, rat; settings: Crl/SD rats, oral, 1 mg/mL at 10 mL/kg
Protocol: Test Animals: Selection of rats (Crl/SD rats, 7 weeks, male) for this study was based on rectal body temperature measured during the morning of the day of dosing. In addition, animals selected for this study were acclimated to both the rectal measurement procedure and to being handled and dosed to minimize spontaneous, stress-induced, increases in body temperature. The study was conducted in the animal care laboratories where the room temperature and humidity were kept. The rats were free to move and food and water during the study. Each rat was numbered with color line on the tail, housed in each cage and permitted the normal range of movement. Immediately before each body temperature was measured, they transferred to a single cage at each measurement. To reduce stress which affected the body temperature, the rats were covered with towels at the measurement. The thermistor probe was then carefully inserted into the rectum of each rat and left in place until the value on the digital display had stabilized.
Assays: On the day before dosing, rectal body temperatures were measured at 9:00, 10:00, 11:00, 12:30, 13:30, 14:30 and 15:30 to familiarize the animals with the measurement procedure prior to administration of the test or control treatments. The rats were also dosed by oral gavage without vehicle at 12:30 to acclimate and familiarized the animals with the handling and dosing procedure.
On the day of dosing, only rats whose rectal body temperatures were within the range of 37.0° C. to 37.7° C. were selected for this study. Rectal body temperatures were measured at 9:00, 10:00 and 11:00. Rats whose rectal body temperatures were over 37.9° C. at 10:00, and were outside the range of 37.0° C. to 37.7° C. at 11:00 were excluded from the study. The selected rats were divided to several groups based on their rectal body temperatures at 11:00. Rectal body temperatures of the selected rats were measured again at 12:30, and any rats whose rectal body temperature was 38.0° C. or greater were excluded from the study.
Following the group assignment, test compounds or vehicle was administrated to the rats. Each test compound was dissolved in 0.5% methylcellurose and the final concentration of the compound was adjusted to 1 mg/mL. Test compound was orally administrated in a volume 10 mL/kg once. 10 mL/kg of vehicle (0.5% methylcellurose) was administered to the vehicle group. The rectal body temperatures were measured 0.5, 1 and 2 hrs after the administration. The study was conducted in the animal care laboratories where the room temperature and humidity were kept.
Body temperature increase (ΔTb) was calculated from the difference from an average of the vehicle group at each time point.

[3] = molecular target: T1, human recombinant TRPV1; experiment: TRPV1 Capsaicin-Based Assay (Protocol 2, TRPV1/CHO cells, Fluo-4, FLIPR); format: cell-based; settings: TRPV1/CHO cells, capsaicin 100 nM final; read-out: IC50 value by the Capsaicin-Based Assay
Protocol: as §1
One day prior to assay, TRPV1/CHO cells were seeded in 96-well clear-bottom black plates (20,000 cells/well) in growth media. On the day of the experiment, the cells were washed with 0.2 mL 1× Hank's Balanced Salt Solution (Life Technologies) containing 1.6 mM CaCl2 and 20 mM HEPES, pH 7.4 (“wash buffer”). Subsequently, the cells were loaded by incubation in 0.1 mL of wash buffer containing Fluo-4 at 3 μM final concentration. After 1 hour, the cells were washed twice with 0.2 mL wash buffer and resuspended in 0.1 mL wash buffer. The plates were then transferred to a Fluorescence Imaging Plate Reader (Molecular Devices). Fluorescence intensity was monitored for 15 seconds to establish a baseline. Subsequently, test compounds diluted in assay buffer (1× Hank's Balanced Salt Solution containing 1 mM CaCl2 and 20 mM HEPES, pH 7.4) containing 1% DMSO were added to the cell plate and fluorescence was monitored for 2 minutes. […] Human TRPV1 was then activated by the addition of 50 μL capsaicin (100 nM final concentration) and plates incubated for an additional 3 min. Data were collected over the entire time course and analyzed using Excel and the curve-fitting formula GraphPad Prism.

T1 sequence (Q8NER1 whole entry): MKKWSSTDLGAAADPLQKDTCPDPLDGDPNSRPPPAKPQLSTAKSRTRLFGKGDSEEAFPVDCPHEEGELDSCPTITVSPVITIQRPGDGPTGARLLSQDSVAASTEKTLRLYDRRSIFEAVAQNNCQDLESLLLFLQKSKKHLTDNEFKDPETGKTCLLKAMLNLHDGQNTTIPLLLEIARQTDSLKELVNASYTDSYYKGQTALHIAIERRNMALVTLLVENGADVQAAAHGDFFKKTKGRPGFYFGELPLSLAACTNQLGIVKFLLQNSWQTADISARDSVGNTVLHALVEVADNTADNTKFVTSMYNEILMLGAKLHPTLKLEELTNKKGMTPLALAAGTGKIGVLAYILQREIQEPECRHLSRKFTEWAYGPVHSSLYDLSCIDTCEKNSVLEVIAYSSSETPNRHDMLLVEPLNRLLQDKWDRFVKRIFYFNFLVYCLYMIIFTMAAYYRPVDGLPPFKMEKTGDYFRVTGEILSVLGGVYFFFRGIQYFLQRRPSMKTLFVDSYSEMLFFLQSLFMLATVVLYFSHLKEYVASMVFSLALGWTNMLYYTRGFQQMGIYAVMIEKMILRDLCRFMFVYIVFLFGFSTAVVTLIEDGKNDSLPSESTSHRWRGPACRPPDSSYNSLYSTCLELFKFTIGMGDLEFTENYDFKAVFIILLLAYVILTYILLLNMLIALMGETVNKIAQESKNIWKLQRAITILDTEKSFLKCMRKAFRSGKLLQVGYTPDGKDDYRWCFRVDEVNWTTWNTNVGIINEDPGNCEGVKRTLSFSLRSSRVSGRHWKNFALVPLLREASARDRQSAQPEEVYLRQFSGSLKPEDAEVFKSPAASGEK

Structure (SMILES) | IC50 [1] | Body temperature increase [2] | IC50 [3]
COc1cc(NC(=O)N2CC=C(c3ncc(C[C@@H](O)CO)cc3Cl)CC2)ccc1C(F)(F)F [AAM, (R)-4-(3-Chloro-5-(2,3-dihydroxypropyl)pyridin-2-yl)-N-(3-methoxy-4-(trifluoromethyl)phenyl)-5,6-dihydropyridine-1(2H)-carboxamide] | ≤ 50 nM | less than 0.5 °C | –
O=C(Nc1ccc(C(F)(F)F)c(Cl)c1)N1CC=C(c2ncc(C[C@H](O)CO)cc2Cl)CC1 [AAF, (S)-N-(3-Chloro-4-(trifluoromethyl)phenyl)-4-(3-chloro-5-(2,3-dihydroxypropyl)pyridin-2-yl)-5,6-dihydropyridine-1(2H)-carboxamide] | ≤ 50 nM | less than 0.5 °C | –
Cc1cc(NC(=O)N2CC=C(c3ncc(C[C@H](O)CO)cc3C)CC2)ccc1C(F)(F)F [ACL, (S)-4-(5-(2,3-dihydroxypropyl)-3-methylpyridin-2-yl)-N-(3-methyl-4-(trifluoromethyl)phenyl)-5,6-dihydropyridine-1(2H)-carboxamide] | – | less than 0.5 °C | –
Cc1cc(NC(=O)N2CC=C(c3ncc(C[C@@H](O)CO)cc3C)CC2)ccc1C(F)(F)F [ACD, (R)-4-(5-(2,3-dihydroxypropyl)-3-methylpyridin-2-yl)-N-(3-methyl-4-(trifluoromethyl)phenyl)-5,6-dihydropyridine-1(2H)-carboxamide] | – | less than 0.5 °C | –
Cc1cc(NC(=O)N2CC=C(c3ncc(C[C@H](O)CO)cc3C)CC2)ccc1OC(F)(F)F [ACK, (S)-4-(5-(2,3-dihydroxypropyl)-3-methylpyridin-2-yl)-N-(3-methyl-4-(trifluoromethoxy)phenyl)-5,6-dihydropyridine-1(2H)-carboxamide] | – | less than 0.5 °C | –
Cc1cc(NC(=O)N2CC=C(c3ncc(C[C@@H](O)CO)cc3F)CC2)ccc1OC(F)(F)F [ACB, (R)-5-(2,3-dihydroxypropyl)-3-fluoro-N-(3-methyl-4-(trifluoromethoxy)phenyl)-5′,6-dihydro-[2,4′-bipyridine]-1′(2′H)-carboxamide] | – | less than 0.5 °C | –
Cc1cc(NC(=O)N2CCC(F)(c3ncc(C[C@H](O)CO)cc3C)CC2)ccc1C(F)(F)F [ACN, (S)-4-(5-(2,3-dihydroxypropyl)-3-methylpyridin-2-yl)-4-fluoro-N-(3-methyl-4-(trifluoromethyl)phenyl)piperidine-1-carboxamide] | ≤ 50 nM | – | ≤ 50 nM
C[C@H]1CN(c2ncc(C[C@@H](O)CO)cc2Cl)CCN1C(=O)Nc1nc2ccccc2s1 [AEA] | ≤ 50 nM | – | ≤ 50 nM
Cc1ccc2nc(NC(=O)N3CCN(c4ncc(C[C@H](O)CO)cc4F)C[C@@H]3C)sc2c1 [AEP] | ≤ 50 nM | – | ≤ 50 nM
Cc1cc(NC(=O)N2CCC(F)(c3ncc(C[C@H](O)CO)cc3C)CC2)ccc1OC(F)(F)F [ACM, (S)-4-(5-(2,3-dihydroxypropyl)-3-methylpyridin-2-yl)-4-fluoro-N-(3-methyl-4-(trifluoromethoxy)phenyl)piperidine-1-carboxamide] | ≤ 50 nM | – | ≤ 50 nM

More lines, now with the values ahead:

IC50 [1] | Body temperature increase [2] | IC50 [3] | Structure (SMILES)
– | less than 0.5 °C | – | O=C(Nc1nc2ccc(F)cc2s1)N1CCC(F)(c2ncc(C[C@@H](O)CO)cc2Cl)CC1 [AEF, (R)-4-(3-chloro-5-(2,3-dihydroxypropyl)pyridin-2-yl)-4-fluoro-N-(6-fluorobenzo[d]thiazol-2-yl)piperidine-1-carboxamide]
≤ 50 nM | – | ≤ 50 nM | Cc1ccc2nc(NC(=O)N3CCN(c4ncc(C[C@@H](O)CO)cc4Cl)C[C@@H]3C)sc2c1 [ADZ]
≤ 50 nM | – | ≤ 50 nM | Cc1cc(NC(=O)N2CCC(F)(c3ncc(C[C@@H](O)CO)cc3Cl)CC2)ccc1OC(F)(F)F [ACJ, (R)-4-(3-Chloro-5-(2,3-dihydroxypropyl)pyridin-2-yl)-4-fluoro-N-(3-methyl-4-(trifluoromethoxy)phenyl)piperidine-1-carboxamide]
≤ 50 nM | – | ≤ 50 nM | Cc1cc(C[C@@H](O)CO)cnc1N1CCN(C(=O)Nc2nc3ccc(F)cc3s2)CC1 [ADA, (R)-4-(5-(2,3-dihydroxypropyl)-3-methylpyridin-2-yl)-N-(6-fluorobenzo[d]-thiazol-2-yl)piperazine-1-carboxamide]
≤ 50 nM | – | ≤ 50 nM | Cc1cc(NC(=O)N2CCC(F)(c3ncc(C[C@H](O)CO)cc3Cl)CC2)ccc1OC(F)(F)F [ACT, (S)-4-(3-Chloro-5-(2,3-dihydroxypropyl)pyridin-2-yl)-4-fluoro-N-(3-methyl-4-(trifluoromethoxy)phenyl)piperidine-1-carboxamide]
≤ 50 nM | – | ≤ 50 nM | C[C@H]1CN(c2ncc(C[C@H](O)CO)cc2C(F)(F)F)CCN1C(=O)Nc1nc2ccc(F)cc2s1 [AGW]
